Legend:
[1] = Concentration required for inhibition of human homologous Disulphide oxidoreductase (hGR) in the presence of GSSG as substrate
[2] = target: Trypanothione reductase (Trypanosoma cruzi) (UniProt P28593); assay: Percentage inhibition of Trypanothione reductase at 25 uM in the presence of 200 uM DTNBA as substrate
[3] = target: Trypanothione reductase (Trypanosoma cruzi, UniProt P28593); assay: Concentration required for inhibition of Trypanothione reductase (TcTR) from Trypanosoma cruzi in the presence of 50 uM TS2 as substrate
[4] = Concentration required for inhibition of human homologous Disulphide oxidoreductase (hGR)

Trypanothione reductase (Trypanosoma cruzi), sequence (P28593 whole entry, looked up): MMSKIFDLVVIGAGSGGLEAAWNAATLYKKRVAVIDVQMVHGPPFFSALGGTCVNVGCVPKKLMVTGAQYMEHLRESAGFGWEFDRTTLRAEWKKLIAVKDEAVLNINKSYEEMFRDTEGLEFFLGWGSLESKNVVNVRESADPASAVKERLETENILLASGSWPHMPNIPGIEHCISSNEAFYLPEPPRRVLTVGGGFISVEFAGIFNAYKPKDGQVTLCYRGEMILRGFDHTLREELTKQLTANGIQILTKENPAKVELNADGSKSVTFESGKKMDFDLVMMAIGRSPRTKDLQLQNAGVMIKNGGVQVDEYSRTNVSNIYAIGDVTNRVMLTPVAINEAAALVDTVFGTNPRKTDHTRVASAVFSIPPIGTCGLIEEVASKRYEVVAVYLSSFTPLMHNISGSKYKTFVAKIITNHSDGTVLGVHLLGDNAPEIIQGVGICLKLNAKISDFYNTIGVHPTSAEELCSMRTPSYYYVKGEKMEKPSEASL
Trypanothione reductase, sequence (P28593 whole entry): as the sequence (P28593 whole entry, looked up) above

IC50 [1] | inhibition [2] | IC50 [3] | SMILES | IC50 [4]
10 µM | 79% | 500 nM | CC1=C(CCCCC(=O)NCCCNCCCNC(=O)CCCCC2=C(C)C(=O)c3cccc(O)c3C2=O)C(=O)c2c(O)cccc2C1=O | 
> 50 µM | 81% | 600 nM | CCCCN(CCCC)CCCNC(=O)CCCCC1=C(CCCCC(=O)NCCCN(CCCC)CCCC)C(=O)c2c(O)cccc2C1=O | 
41 µM | 88% | 300 nM | CCCCN(CCCC)CCCNC(=O)CCCCC1=C(C)C(=O)c2cccc(O)c2C1=O | 
> 50 µM | 86% | 1100 nM | CCCCN(CCCC)CCCNC(=O)CCCCC1=C(C)C(=O)c2ccccc2C1=O | 
 |  | 55000 nM | CC1=CC(=O)c2ccccc2C1=O [MENADIONE] | 63 µM

SMILES | IC50 [1] | inhibition [2] | IC50 [3] | IC50 [4]
CC1=CC(=O)c2c(O)cccc2C1=O [PLUMBAGIN] |  |  | 28000 nM | 38 µM

Reference: ChEMBL document CHEMBL1133437, “Parallel synthesis of a library of 1,4-naphthoquinones and automated screening of potential inhibitors of trypanothione reductase from Trypanosoma cruzi” (Bioorg Med Chem Lett, 2000)
